Drawing on ChEMBL document CHEMBL1909046, “DrugMatrix in vitro pharmacology data”, this text covers IC50 and Ki for 15 molecules.

Data set [1] is described as follows: DRUGMATRIX: Glutamate, Kainate radioligand binding (ligand: [3H] Kainic acid). The format is cell membranes, Rattus norvegicus, Wistar, Brain, Membrane. Particulars: Not Active = under 50% inhibition at 10 µM.
Data set [2] concerns the target T1, Polyunsaturated fatty acid lipoxygenase ALOX15 (Oryctolagus cuniculus, UniProt P12530).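 Also: inhibition of 15-lipoxygenase enzyme activity measured with linoleic acid as the substrate; in other assays of this panel Not Active means under 50% inhibition at 10 µM.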
T1 sequence (P12530 whole entry): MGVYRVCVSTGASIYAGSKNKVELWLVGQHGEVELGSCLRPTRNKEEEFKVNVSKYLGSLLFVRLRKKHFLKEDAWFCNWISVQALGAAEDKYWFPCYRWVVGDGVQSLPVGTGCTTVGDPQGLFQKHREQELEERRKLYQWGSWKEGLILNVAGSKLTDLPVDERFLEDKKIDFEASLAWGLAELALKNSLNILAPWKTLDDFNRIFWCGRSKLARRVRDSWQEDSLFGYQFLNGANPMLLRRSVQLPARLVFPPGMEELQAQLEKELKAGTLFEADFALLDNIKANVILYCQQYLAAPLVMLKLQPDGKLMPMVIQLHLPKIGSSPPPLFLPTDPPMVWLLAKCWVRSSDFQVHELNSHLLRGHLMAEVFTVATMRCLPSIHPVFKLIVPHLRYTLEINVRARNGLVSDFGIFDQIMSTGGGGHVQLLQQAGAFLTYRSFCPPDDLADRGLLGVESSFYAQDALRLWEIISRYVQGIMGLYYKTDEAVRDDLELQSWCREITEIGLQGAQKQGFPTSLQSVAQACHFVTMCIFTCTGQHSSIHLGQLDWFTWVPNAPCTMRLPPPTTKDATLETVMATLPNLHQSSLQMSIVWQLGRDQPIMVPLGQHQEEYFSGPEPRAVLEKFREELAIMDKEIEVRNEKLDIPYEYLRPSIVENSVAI
Briefly: biochemical. In kind it is tissue-based, Reticulocytes. Particulars: reticulocytes.

Data set [3] is described as follows: DRUGMATRIX: Serotonin (5-Hydroxytryptamine) 5-HT3 radioligand binding (ligand: [3H] GR-65630). Particulars: hek293; Not Active = under 50% inhibition at 10 µM. In kind it is cell membranes, Membrane.
In data set [4] the target is T2, Alpha-2C adrenergic receptor (Homo sapiens, UniProt P18825).
T2 sequence (P18825 whole entry): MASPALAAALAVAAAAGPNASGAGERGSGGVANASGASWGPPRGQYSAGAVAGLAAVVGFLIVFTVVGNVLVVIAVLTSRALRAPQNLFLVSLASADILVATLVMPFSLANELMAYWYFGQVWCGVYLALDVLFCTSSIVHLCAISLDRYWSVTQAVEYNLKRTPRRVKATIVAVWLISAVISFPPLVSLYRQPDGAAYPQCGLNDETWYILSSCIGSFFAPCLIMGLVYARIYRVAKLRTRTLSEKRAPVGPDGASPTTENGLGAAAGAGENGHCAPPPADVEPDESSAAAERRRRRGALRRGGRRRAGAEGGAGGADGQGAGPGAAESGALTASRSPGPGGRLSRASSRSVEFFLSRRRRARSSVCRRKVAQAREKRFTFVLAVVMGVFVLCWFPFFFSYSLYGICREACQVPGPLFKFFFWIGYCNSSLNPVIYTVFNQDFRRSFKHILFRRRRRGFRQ
As to the kind of experiment: DRUGMATRIX: Adrenergic Alpha-2C radioligand binding (ligand: [3H] MK-912). In kind it is cell membranes, Sf9, Membrane. Particulars: sf9.

The target of the next data set is T3, Cytochrome P450 2A6 (Homo sapiens, UniProt P11509). Also: in other assays of this panel Not Active means under 50% inhibition at 10 µM.
T3 sequence (P11509 whole entry): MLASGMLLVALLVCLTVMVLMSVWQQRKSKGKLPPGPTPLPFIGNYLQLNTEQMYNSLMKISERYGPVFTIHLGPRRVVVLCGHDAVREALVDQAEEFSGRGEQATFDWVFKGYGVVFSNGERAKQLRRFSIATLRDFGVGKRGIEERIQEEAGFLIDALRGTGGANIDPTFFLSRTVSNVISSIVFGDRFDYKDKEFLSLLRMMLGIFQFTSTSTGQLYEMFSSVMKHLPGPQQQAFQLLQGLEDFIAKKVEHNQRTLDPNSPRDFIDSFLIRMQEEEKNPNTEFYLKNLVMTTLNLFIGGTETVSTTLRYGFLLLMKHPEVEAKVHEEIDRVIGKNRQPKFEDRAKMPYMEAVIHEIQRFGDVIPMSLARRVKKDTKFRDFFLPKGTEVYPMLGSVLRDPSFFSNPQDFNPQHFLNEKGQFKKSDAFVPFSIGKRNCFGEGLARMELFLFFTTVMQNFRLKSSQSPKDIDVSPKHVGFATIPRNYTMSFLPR
Particulars: bti-tn-5b1-4.

Data set [5] can be described thus: DRUGMATRIX: Calcium Channel Type L, Benzothiazepine radioligand binding (ligand: [3H] Diltiazem). The format is cell membranes, Rattus norvegicus, Wistar, Brain, Membrane. Particulars: Not Active = under 50% inhibition at 10 µM.

By IC50 is commonly meant the point on the concentration scale where inhibition reaches its midpoint. The Ki is the equilibrium dissociation constant of an inhibitor or competing ligand from its target. Take `CC(C)(C)NCC(O)COc1cccc2c1CC(O)C(O)C2` (stereo not given) [NADOLOL]: the 50% inhibitory concentration (IC50) result (in data set [1]; in data set [2]; in data set [3]; in data set [4]; against Cytochrome P450 2A6; in data set [5]) was “Not Active” throughout. Moreover, the inhibition constant (Ki) result (in data set [1]; in data set [3]; at Cytochrome P450 2A6; in data set [5]) was “Not Active” each time.
As to `C[C@]12CC[C@H]3[C@@H](CCC4=CC(=O)CC[C@@H]43)[C@@H]1CC[C@@H]2O` [NANDROLONE], the IC50 entry (in data set [1]; in data set [2]; in data set [3]; in data set [4]; at Cytochrome P450 2A6; in data set [5]) was “Not Active” throughout. Moreover, the inhibition constant (Ki) entry (in data set [1]; in data set [3]; at Cytochrome P450 2A6; in data set [5]) was “Not Active” in each case.
For `CN(C)C(=O)Oc1cccc([N+](C)(C)C)c1.[Br-]` [NEOSTIGMINE BROMIDE], the IC50 result (in data set [1]; in data set [2]; in data set [3]; in data set [4]; at Cytochrome P450 2A6; in data set [5]) was “Not Active” in each case. Also, the Ki entry (in data set [1]; in data set [3]; at Cytochrome P450 2A6; in data set [5]) was “Not Active” each time.
`NC(=O)c1cccnc1` [NIACINAMIDE]: the IC50 result (in data set [1]; in data set [2]; in data set [3]; in data set [4]; on Cytochrome P450 2A6; in data set [5]) was “Not Active” throughout. Also, the Ki entry (in data set [1]; in data set [3]; on Cytochrome P450 2A6; in data set [5]) was “Not Active” in each case.
With `CS(=O)(=O)Nc1ccc([N+](=O)[O-])cc1Oc1ccccc1` [NIMESULIDE], the half-maximal inhibitory concentration (IC50) result (in data set [1]; in data set [2]; in data set [3]; in data set [4]; against Cytochrome P450 2A6; in data set [5]) was “Not Active” in each case. In addition, the inhibitory constant (Ki) entry (in data set [1]; in data set [3]; at Cytochrome P450 2A6; in data set [5]) was “Not Active” each time.
`CN1C(=O)CN=C(c2ccccc2)c2cc([N+](=O)[O-])ccc21` [NIMETAZEPAM]: the half-inhibitory concentration (IC50) entry (in data set [1]; in data set [2]; in data set [3]; in data set [4]; against Cytochrome P450 2A6; in data set [5]) was “Not Active” each time. The Ki result (in data set [1]; in data set [3]; on Cytochrome P450 2A6; in data set [5]) was “Not Active” in each case.
`COc1ccc2c(c1OC)C(=O)O[C@@H]2[C@H]1c2c(cc3c(c2OC)OCO3)CCN1C` [NOSCAPINE]: the IC50 result (in data set [1]; in data set [2]; in data set [3]; in data set [4]; at Cytochrome P450 2A6; in data set [5]) was “Not Active” in each case. In addition, the Ki result (in data set [1]; in data set [3]; at Cytochrome P450 2A6; in data set [5]) was “Not Active” in each case.
On to `C[C@@H]1O[C@@H](O[C@H]2C[C@@H](O)[C@]3(CO)[C@H]4[C@H](O)C[C@]5(C)[C@@H](C6=CC(=O)OC6)CC[C@]5(O)[C@@H]4CC[C@]3(O)C2)[C@H](O)[C@H](O)[C@H]1O` [OUABAIN], for which the half-inhibitory concentration (IC50) result (in data set [1]; in data set [2]; in data set [3]; in data set [4]; against Cytochrome P450 2A6; in data set [5]) was “Not Active” in each case. Also, the Ki result (in data set [1]; in data set [3]; on Cytochrome P450 2A6; in data set [5]) was “Not Active” throughout.
Turning to `NC(=O)N1c2ccccc2CC(=O)c2ccccc21` [OXCARBAZEPINE], the 50% inhibitory concentration (IC50) entry (in data set [1]; in data set [2]; in data set [3]; in data set [4]; on Cytochrome P450 2A6; in data set [5]) was “Not Active” throughout. For the same molecule, the Ki result (in data set [1]; in data set [3]; on Cytochrome P450 2A6; in data set [5]) was “Not Active” each time.
With `COc1ccnc(C[S+]([O-])c2nc3ccc(OC(F)F)cc3[nH]2)c1OC` (stereo not given) [PANTOPRAZOLE], the IC50 entry (in data set [1]; in data set [2]; in data set [3]; in data set [4]; against Cytochrome P450 2A6; in data set [5]) was “Not Active” each time. Moreover, the inhibition constant (Ki) result (in data set [1]; in data set [3]; on Cytochrome P450 2A6; in data set [5]) was “Not Active” in each case.
As to `N=C(N)c1ccc(OCCCCCOc2ccc(C(=N)N)cc2)cc1` [PENTAMIDINE], the half-maximal inhibitory concentration (IC50) result in data set [1] was “Not Active”; in data set [2], “Not Active”; in data set [3], “Not Active”; in data set [4], “Not Active”; on Cytochrome P450 2A6 it was “Not Active”; in data set [5] (read-out: IC50), 2.21 µM. In addition, the Ki entry in data set [1] was “Not Active”; in data set [3], “Not Active”; on Cytochrome P450 2A6 it was “Not Active”; in data set [5] (read-out: Ki), 1.96 µM.
For the molecule `NNCCc1ccccc1` [PHENELZINE], the half-maximal inhibitory concentration (IC50) entry (in data set [1]; in data set [2]; in data set [3]; in data set [4]; against Cytochrome P450 2A6; in data set [5]) was “Not Active” in each case. Moreover, the inhibition constant (Ki) entry (in data set [1]; in data set [3]; at Cytochrome P450 2A6; in data set [5]) was “Not Active” each time.
As for `CCc1ccc(CCOc2ccc(CC3SC(=O)NC3=O)cc2)nc1` (stereo not given) [PIOGLITAZONE], the IC50 result (in data set [1]; in data set [2]; in data set [3]; in data set [4]; at Cytochrome P450 2A6; in data set [5]) was “Not Active” throughout. For the same molecule, the Ki entry (in data set [1]; in data set [3]; on Cytochrome P450 2A6; in data set [5]) was “Not Active” in each case.
`CCCNC(C)C(=O)Nc1ccccc1C` (stereo not given) [PRILOCAINE]: the IC50 result (in data set [1]; in data set [2]; in data set [3]; in data set [4]; on Cytochrome P450 2A6; in data set [5]) was “Not Active” each time. Moreover, the inhibition constant Ki result (in data set [1]; in data set [3]; on Cytochrome P450 2A6; in data set [5]) was “Not Active” each time.
For `CCN(CC)CCNC(=O)c1ccc(N)cc1` [PROCAINAMIDE], the half-inhibitory concentration (IC50) result (in data set [1]; in data set [2]; in data set [3]; in data set [4]; against Cytochrome P450 2A6; in data set [5]) was “Not Active” throughout. The inhibition constant Ki entry (in data set [1]; in data set [3]; on Cytochrome P450 2A6; in data set [5]) was “Not Active” throughout.
